Here are results for 10 molecules from patent publication US9061997B2, “Quinolinone derivatives” (Centre National de la Recherche Scientifique, priority 2010, dated 2015).

Where two headings read alike, the source gives them in different places.

Assay [1] concerns C3H10T1/2 cells. Description: Enzymatic assay of alkaline phosphatase in 96-well plates (differentiation of C3H10T1/2 cells). Type of assay: cell-based. The note with it: for EC50 / Emax: Mus musculus. How it is done: (§1) The effect of the compounds of general formula (I) in accordance with the invention on the stimulation of osteogenesis was determined in vitro by analyzing the differentiation of the C3H10T1/2 pluripotent mesenchymal cell line.
(§2) The test compounds of formula (I) were dissolved in dimethyl sulfoxide (DMSO) to a concentration of 2.5 mM, and then stored at a temperature of −20° C. until use.
(§3) The C3H10T1/2 pluripotent fibroblast cell line (ATCC CCL 226) was cultured under the conditions recommended by the ATCC in DMEM culture medium supplemented with 10% of fetal calf serum at a temperature of 37° C. under an atmosphere at 5% CO2. 24 hours after seeding, the cells were stimulated for 6 days in the presence of the compounds of general formula (I) directly diluted in the culture medium. The activation by these compounds causes differentiation of the cell line to the osteoblast lineage and enables the latter to express alkaline phosphatase. Said alkaline phosphatase is then detected by histochemistry or enzymatic assay.
The C3H10T1/2 cells were seeded onto 96-well plates at a density of 5×10^3 cells per well. The compounds were applied at increasing concentrations ranging from 10 nM to 10 μM. The plates were then incubated for 6 days and the assays were then carried out in quadruplicate according to the methods previously described (Chen et al. 2002; Frank-Kamenetsky et al. 2002).
The cells were washed in cold phosphate buffer (PBS) and then lysed by sonication at 4° C. in 50 μl of solution containing 0.9% of NaCl and 0.2% of Triton X-100. The alkaline phosphatase activity in the resulting lysates was then measured according to the method described by Pepinsky et al. (Pepinsky et al. 1998). After the addition of 100 μl of reaction buffer (200 mM Tris-HCl; pH 10.5; 0.4 M of 2-amino-2-methylpropanol and 8 mM of MgCl2) and of 50 μl of substrate (4 mM of disodium p-nitrophenyl phosphate), the lysates were incubated at 37° C. for 60 min, and then the optical density (OD) was measured at a wavelength of 415 nm. By way of comparison, the activity of the SAG compound, which activates osteogenesis by acting on the Hedgehog pathway, was tested under the same conditions. The GraphPad Prism 4° software was used to plot the curves and to determine the effective concentrations 50 (EC50).

In assay [2] the test system is C3H10T1/2 cells. The experiment in a line: Detection of alkaline phosphatase by histochemistry (differentiation of C3H10T1/2 cells). Type of assay: cell-based. Particulars: 10 μM, 6 days; intensities compound 4>compound 1>compound 8>compound 6; no DMSO-treated cell labeled. The method, then: as §1, §2, §3
For this experiment, the cells are cultured in 6-well plates containing a glass cover slip treated for 1H with 0.05 mg/ml poly-D-lysine. The C3H10T1/2 cells are seeded at a density of 150 000 cells per well. The compounds were applied at a concentration of 10 μM. the Sigma staining kit (85L-3R) was used according to the protocol described. Briefly, after fixing the cells for 30 seconds with a solution of citrate/acetone (2-3) and then rinsing with double-distilled water, the staining is carried out for 30 min in the presence of a solution of Fast-Violet/Naphthol in the dark. The cover slips are then rinsed thoroughly with double-distilled water and then mounted in aqueous medium before being photographed on a DMRXA2 microscope (Leica Microsystems). The cells expressing alkaline phosphatase are stained red.

[3] abbreviates: C3H 10T1/2, 144 h, 6 days of stimulation, 10 nM to 10 μM, OD 415 nm, mean of 2 to 5 independent experiments, read-out: EC50 on the differentiation of C3H10T1/2 cells measured via alkaline phosphatase activity.
Where [4] appears, read: C3H 10T1/2, 144 h, 6 days of stimulation, relative to compound 1 in the same experiment, mean of 2 to 5 independent experiments, read-out: Maximum stimulation, % of maximum activation of compound 1.
Where [5] appears, read: dose-response curve produced in parallel with compound 1.

Turning to `CCCCCCn1c(=O)c(C(=O)Nc2ccc(C(=O)OCc3ccccc3)cc2)c(O)c2ccccc21` [Compound 7, benzyl 4-(1-hexyl-4-hydroxy-2-oxo-1,2-dihydroquinoline-3-carboxamido)benzoate], the EC50 in the assay with C3H10T1/2 cells [1] (setting [3]) amounted to 2000 nM. The Emax in the assay with C3H10T1/2 cells [1] (setting [4]) worked out at 47%.

Consider `CCCCCCn1c(=O)c(C(=O)Nc2ccc(C(=O)OCCCC)cc2)c(O)c2ccccc21` [Compound 5, butyl 4-(1-hexyl-4-hydroxy-2-oxo-1,2-dihydroquinoline-3-carboxamido)benzoate], for which the EC50 in the assay with C3H10T1/2 cells [1] (setting [3]) came to 1500 nM. Moreover, the Emax with C3H10T1/2 cells [1] (setting [4]) is 91%.

With `CCCCCCn1c(=O)c(C(=O)Nc2ccc(C(=O)OCCC)cc2)c(O)c2ccccc21` [Compound 1, propyl 4-(1-hexyl-4-hydroxy-2-oxo-1,2-dihydroquinoline-3-carboxamido)benzoate], the EC50 in the assay with C3H10T1/2 cells [1] (setting [3]) came to 1300 nM. Further, the Emax in the assay on C3H10T1/2 cells [1] (setting [4]) is 100%. The “Expression of alkaline phosphatase detected by histochemical staining (number of cells labeled)” value (“Expression” below) with C3H10T1/2 cells [2] is on record as “increase in the number of cells labeled”.

For `CNC1CCC(N(Cc2cccc(-c3ccncc3)c2)C(=O)c2sc3ccccc3c2Cl)CC1` (centres unmarked) [SAG, reference compound], in the assay on C3H10T1/2 cells [1] (setting [5]), the “Affinity compared with compound 1 (FIG. 3)” value is given as “similar” and the “Maximum stimulation compared with compound 1 (FIG. 3)” value was “lower maximum stimulation than compound 1”.

As for `CCCCCCn1c(=O)c(C(=O)Nc2ccc(C(=O)OC(C)C)cc2)c(O)c2ccccc21` [Compound 9, isopropyl 4-(1-hexyl-4-hydroxy-2-oxo-1,2-dihydroquinoline-3-carboxamido)benzoate], the EC50 in the assay on C3H10T1/2 cells [1] (setting [3]) came to 6500 nM. In the assay on C3H10T1/2 cells [1] (setting [4]), the Emax amounted to 33%.

In the case of `CCCCCCn1c(=O)c(C(=O)Nc2ccc(C(=O)OCC)cc2)c(O)c2ccccc21` [Compound 3, ethyl 4-(1-hexyl-4-hydroxy-2-oxo-1,2-dihydroquinoline-3-carboxamido)benzoate], the EC50 with C3H10T1/2 cells [1] (setting [3]) turned out to be 3600 nM. The Emax in the assay on C3H10T1/2 cells [1] (setting [4]) worked out at 66%.

`CCOC(=O)c1ccc(NC(=O)c2c(O)c3ccccc3n(Cc3ccccc3)c2=O)cc1` [Compound 2, ethyl 4-(1-benzyl-4-hydroxy-2-oxo-1,2-dihydroquinoline-3-carboxamido)benzoate]: the EC50 in the assay on C3H10T1/2 cells [1] (setting [3]) is > 3000 nM. The Emax with C3H10T1/2 cells [1] (setting [4]) was 4%.

As to `CCCCCCn1c(=O)c(C(=O)Nc2ccc(C(=O)OC(C)(C)C)cc2)c(O)c2ccccc21` [Compound 6, tert-butyl 4-(1-hexyl-4-hydroxy-2-oxo-1,2-dihydroquinoline-3-carboxamido)benzoate], in the assay with C3H10T1/2 cells [1] (setting [3]), the EC50 is 3100 nM. Further, the Emax in the assay on C3H10T1/2 cells [1] (setting [4]) was found to be 62%. Moreover, the “Expression” value in the assay with C3H10T1/2 cells [2] is recorded as “increase in the number of cells labeled”.

Consider `CCCCCCn1c(=O)c(C(=O)Nc2ccc(C(=O)O)cc2)c(O)c2ccccc21` [Compound 4, 4-(1-hexyl-4-hydroxy-2-oxo-1,2-dihydroquinoline-3-carboxamido)benzoic acid], for which the EC50 in the assay with C3H10T1/2 cells [1] (setting [3]) was 600 nM; in the assay with C3H10T1/2 cells [1] (C3H 10T1/2, 144 h, 6 days of stimulation, alkaline phosphatase activity, read-out: Affinity (activation of C3H10T1/2 cell differentiation)) it was 600 nM. The Emax with C3H10T1/2 cells [1] (setting [4]) stood at 124%; with C3H10T1/2 cells [1] (C3H 10T1/2, excess over compound 1, read-out: Maximum stimulation greater than that of compound 1) it was 20%. In the assay on C3H10T1/2 cells [2], the “Expression” value is “increase in the number of cells labeled”.

In the case of `CCCCCCn1c(=O)c(C(=O)Nc2ccc(C(=O)NCCCC)cc2)c(O)c2ccccc21` [Compound 8, N-(4-(butylcarbamoyl)phenyl)-1-hexyl-4-hydroxy-2-oxo-1,2-dihydroquinoline-3-carboxamide], the EC50 with C3H10T1/2 cells [1] (setting [3]) amounted to 5800 nM. Moreover, the Emax in the assay with C3H10T1/2 cells [1] (setting [4]) turned out to be 94%. In addition, the “Expression” value in the assay with C3H10T1/2 cells [2] is “increase in the number of cells labeled”.
